Test results published in patent publication US20120035214A1, “RENIN INHIBITORS” (Merck Canada Inc., priority 2009, published 2012).

Assays:
[1] = molecular target: T1, recombinant renin in human plasma (Homo sapiens, UniProt P00797); test: Inhibition of renin in human plasma (QFRET, plasma); format: biochemical; conditions: human EDTA plasma with 1 nM recombinant renin added; 37° C., 1 hour
T1 construct: purchased Proteos
T1 sequence (P00797 67-406): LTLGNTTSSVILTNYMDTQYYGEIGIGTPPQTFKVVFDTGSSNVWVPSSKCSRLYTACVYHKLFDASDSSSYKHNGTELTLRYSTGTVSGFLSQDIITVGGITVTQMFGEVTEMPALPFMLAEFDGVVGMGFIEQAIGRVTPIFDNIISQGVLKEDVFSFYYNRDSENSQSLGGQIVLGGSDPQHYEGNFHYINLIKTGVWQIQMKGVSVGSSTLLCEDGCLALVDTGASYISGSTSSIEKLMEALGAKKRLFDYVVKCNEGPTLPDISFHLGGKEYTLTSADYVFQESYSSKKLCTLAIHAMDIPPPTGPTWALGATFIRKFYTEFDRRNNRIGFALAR
Experimental: Inhibition of Renin in Human Plasma
Human EDTA-collected plasma is rapidly thawed in warm water and centrifuged at 2900 g for 15 minutes at 4° C. The supernatant is collected and recombinant renin (Proteos) is added at a final concentration of 1 nM. The plasma is transferred to a Costar black 384 well plate (#3573). Renin inhibitors are added from a 17.5 fold concentrated DMSO solution and pre-incubated at 37° C. for 10 minutes. The internally-quench fluorescent peptide QXL520™-[…](5-FAM) (Anaspec), SEQ ID NO: 2, is diluted in 3M Tris pH 7.2, 200 mM EDTA and added to the plasma. The final concentrations are: 6 μM substrate, 342 mM Tris, 23 mM EDTA. The plate is incubated at 37° C. for 1 hour. The plate is read in a SpectraMax Gemini EM reader set at an excitation wavelength of 490 nm and an emission wavelength of 520 nm at times 0 and 1 hour. Background fluorescence at t=0 is subtracted from the measurement at t=1 hour. Inhibitory activity of the compounds is expressed as IC50.

Human recombinant renin = molecular target: T2, Human recombinant renin (Homo sapiens, UniProt P00797); test: Inhibition of human recombinant renin (QFRET, buffer); format: biochemical; conditions: buffer: 50 mM MOPS pH 7.4, 100 mM NaCl, 0.002% Tween 20; 37° C., 3 hours
T2 construct: purchased Proteos
T2 sequence (P00797 67-406): T1 sequence (P00797 67-406)
Experimental: Inhibition of Human Recombinant Renin
Human recombinant renin (Proteos) in 50 mM MOPS pH 7.4, 100 mM NaCl, 0.002% Tween 20 at a final concentration of […] is incubated with inhibitors from a 50 fold concentrated DMSO solution and 6 μM of an internally-quenched fluorescent peptide: DNP-[…]D,L-Amp (SEQ ID NO: 1); Paschalidou K. et al., Biochem J., 2004, 382, 1031). The reactions take place in a Costar 384 well black plate (#3573) at 37° C. for 3 hours. Fluorescence is measured at times 0 and 3 hours with a SpectraMax Gemini EM reader set at an excitation wavelength of 328 nm and at an emission wavelength of 388 nm. Background fluorescence at t=0 is subtracted from the measurement at t=3 hours. Inhibitory activity of the compounds is expressed as IC50.

Compound	IC50 [1]	IC50 (Human recombinant renin)
COCCCc1ccccc1-c1ccc([C@H]2CNCC[C@@H]2c2ccccc2)c(C)c1 (racemic) [Structure 1]	> 10000 nM	620 nM
COCCCc1ccccc1-c1ccc([C@H]2CNCC[C@@H]2c2cccnc2)c(C)c1 (racemic) [Structure 2]	310 nM	18 nM
CC(=O)NCCc1ccccc1-c1ccc([C@H]2CNCC[C@@H]2c2cccnc2)c(C)c1 (racemic) [Structure 3]	41 nM	9.2 nM
COCCCc1cc(OCCOC)ccc1-c1ccc([C@H]2CNCC[C@@H]2c2cccnc2)c(C)c1 (racemic) [Structure 6]	1800 nM	380 nM
Cc1cc(-c2ccccc2CCCO)ccc1[C@H]1CNCC[C@@H]1c1cc(F)cc(F)c1 (racemic) [Structure 7, (+/−)-trans-3-{4′-[4-(3,5-difluorophenyl)piperidin-3-yl]-3′-methylbiphenyl-2-yl}propan-1-ol]	3150 nM	85 nM
Cc1cc(-c2ccccc2CCCO)ccc1[C@H]1CNCC[C@@H]1c1cccc2nc[nH]c12 (racemic) [Structure 9]	> 9500 nM	998 nM
COCCCc1cccc(C)c1-c1ccc([C@H]2CNCC[C@@H]2c2cccnc2)c(C)c1 (racemic) [Structure 12]	150 nM	10 nM
Cc1cc(-c2ccccc2CCNS(C)(=O)=O)ccc1[C@H]1CNCC[C@@H]1c1cc(F)cc(F)c1 (racemic) [Structure 19]	1810 nM	71 nM
Cc1cc(-c2ccccc2CCNC(=O)C(C)C)ccc1[C@H]1CNCC[C@@H]1c1cc(F)cc(F)c1 (racemic) [Structure 21]	1150 nM	14 nM
Cc1cc(-c2ccccc2CCNC(=O)c2ccccc2)ccc1[C@H]1CNCC[C@@H]1c1cc(F)cc(F)c1 (racemic) [Structure 22]	1170 nM	20 nM
Cc1cc(-c2ccccc2CCNC(=O)c2ccn(C)n2)ccc1[C@H]1CNCC[C@@H]1c1cc(F)cc(F)c1 (racemic) [Structure 23]	69 nM	26 nM
Cc1cc(-c2ccccc2CCNC(=O)c2cnn(C)c2)ccc1[C@H]1CNCC[C@@H]1c1cc(F)cc(F)c1 (racemic) [Structure 24]	1010 nM	73 nM
Cc1cc(-c2ccccc2CCNC(=O)OCc2ccccc2)ccc1[C@H]1CNCC[C@@H]1c1cc(F)cc(F)c1 (racemic) [Structure 25]	5470 nM	18 nM
Cc1cc(-c2ccccc2CCN)ccc1[C@H]1CNCC[C@@H]1c1cc(F)cc(F)c1 (racemic) [Structure 27]	1040 nM	81 nM
Cc1cc(-c2cccc3ccc(O)cc23)ccc1[C@H]1CNCC[C@@H]1c1cc(F)cc(F)c1 (racemic) [Structure 29]	> 28000 nM	93 nM
COCc1ccc2cccc(-c3ccc([C@H]4CNCC[C@@H]4c4cc(F)cc(F)c4)c(C)c3)c2c1 (racemic) [Structure 30]	11300 nM	100 nM
Cc1cc(-c2ccccc2CCNC(=O)C(F)(F)C(F)(F)F)ccc1[C@H]1CNCC[C@@H]1c1cc(F)cc(F)c1 (racemic) [Structure 32]	75 nM	23 nM
Cc1ccccc1OCc1ccccc1-c1ccc([C@H]2CNCC[C@@H]2c2cc(F)cc(F)c2)c(C)c1 (racemic) [Structure 34]	4980 nM	7.5 nM
Cc1cc(-c2ccccc2OCc2ccccc2)ccc1[C@H]1CNCC[C@@H]1c1cc(F)cc(F)c1 (racemic) [Structure 37]	12400 nM	87 nM
Cc1cc(-c2ccccc2OCc2cccnc2)ccc1[C@H]1CNCC[C@@H]1c1cc(F)cc(F)c1 (racemic) [Structure 38]	> 28000 nM	150 nM
COCCCc1ccccc1-c1ccc([C@H]2CNCC[C@]2(O)c2cccnc2)c(C)c1 (racemic) [Structure 40]	1140 nM	47 nM
CC(=O)NCCc1ccccc1-c1ccc([C@H]2CNCC[C@@H]2c2cccnc2N)c(Cl)c1 (racemic) [Structure 45]	4580 nM	710 nM
O[C@]1(c2ccc(F)c(F)c2)CCNC[C@@H]1c1cc(-c2ccc(F)cc2Cl)no1 [Structure 69]		2500 nM

The next compounds have a lower IC50 (Human recombinant renin) than those just listed; values first:

IC50 [1]	IC50 (Human recombinant renin)	Compound
130 nM	4.4 nM	Cc1cc(-c2ccccc2CCNC(=O)C2CC2)ccc1[C@H]1CNCC[C@@H]1c1cc(F)cc(F)c1 (racemic) [Structure 31]
1180 nM	4.3 nM	COCCCc1ccccc1-c1ccc([C@H]2CNCC[C@@H]2c2cc(F)cc(F)c2)c(C)c1 (racemic) [Structure 8]
750 nM	4.2 nM	COCCCc1ccccc1-c1ccc([C@H]2CNCC[C@]2(O)c2cc(F)cc(F)c2)c(C)c1 (racemic) [Structure 39]
1890 nM	3.8 nM	Cc1cc(-c2ccccc2COc2ccccc2)ccc1[C@H]1CNCC[C@@H]1c1cc(F)cc(F)c1 (racemic) [Structure 35]
45 nM	3.7 nM	CC(=O)NCCc1ccccc1-c1ccc([C@H]2CNCC[C@@H]2c2ccc(F)c(F)c2)cc1 (racemic) [Structure 44]
2060 nM	3.5 nM	COCCCc1ccccc1-c1ccc([C@H]2CNCC[C@@H]2c2cccc3nc[nH]c23)c(Cl)c1 (racemic) [Structure 10]
66 nM	2.7 nM	COCCCc1ccccc1-c1ccc([C@H]2CNCC[C@@H]2c2cccnc2)c(Cl)c1 (racemic) [Structure 11]
120 nM	2.1 nM	Cc1cc(-c2ccccc2CCNC(=O)CC(F)(F)F)ccc1[C@H]1CNCC[C@@H]1c1cc(F)cc(F)c1 (racemic) [Structure 33]
18 nM	1.6 nM	CC(=O)NCCc1ccccc1-c1ccc([C@H]2CNCC[C@@H]2c2cc(F)cc(F)c2)c(C)c1 (racemic) [Structure 15]
30 nM	1.5 nM	Cc1cc(-c2ccccc2CCNC(=O)CO)ccc1[C@H]1CNCC[C@@H]1c1cc(F)cc(F)c1 (racemic) [Structure 26]
1.3 nM	0.65 nM	CCC(=O)NCCc1ccccc1-c1ccc([C@H]2CNCC[C@@H]2c2cc(F)cc(F)c2)c(C)c1 (racemic) [Structure 18]
25 nM	0.57 nM	Cc1cc(-c2ccccc2CCNC(=O)C(F)(F)F)ccc1[C@H]1CNCC[C@@H]1c1cc(F)cc(F)c1 (racemic) [Structure 20]
25 nM	0.56 nM	COC(=O)NCCc1ccccc1-c1ccc([C@H]2CNCC[C@@H]2c2cc(F)cc(F)c2)c(C)c1 (racemic) [Structure 28]
94 nM	0.55 nM	Cc1cc(-c2ccccc2COc2cccnc2)ccc1[C@H]1CNCC[C@@H]1c1cc(F)cc(F)c1 (racemic) [Structure 36]
3.5 nM	0.26 nM	O=C(CO)NCCc1ccccc1-c1ccc([C@H]2CNCC[C@@H]2c2ccc(F)c(F)c2)c(Cl)c1 (racemic) [Structure 43]
9.8 nM	0.14 nM	COC(=O)NCCc1ccccc1-c1ccc([C@H]2CNCC[C@@H]2c2ccc(F)c(F)c2)c(Cl)c1 (racemic) [Structure 42]
6.6 nM	0.1 nM	O=C(NCCc1ccccc1-c1ccc([C@H]2CNCC[C@@H]2c2ccc(F)c(F)c2)c(Cl)c1)C(F)(F)F (racemic) [Structure 41]
